# Source: US11014911B2, “CDK2 inhibitors” (Pfizer Inc., priority 2019, dated 2021)
# Legend:
# GSK3β (H350L) = GSK3β (H350L) (Homo sapiens (Human), UniProt P49841); settings: read-out: GSK3β Ki
# Procedure: The assay was initiated with the addition of ATP, following 15 minutes pre-incubation of enzyme and inhibitor at room temperature in the reaction mixture. The reaction was stopped after 30 minutes at room temperature by the addition of 50 μL of 80 mM EDTA.
# [1] = target: CDK2/Cyclin E1 full length (Homo sapiens (Human), UniProt P24941); assay: CDK2/Cyclin E1 full length mobility shift assay; format: biochemical
# Chain of GSK3β (H350L) (P49841 whole entry, stated change not applied): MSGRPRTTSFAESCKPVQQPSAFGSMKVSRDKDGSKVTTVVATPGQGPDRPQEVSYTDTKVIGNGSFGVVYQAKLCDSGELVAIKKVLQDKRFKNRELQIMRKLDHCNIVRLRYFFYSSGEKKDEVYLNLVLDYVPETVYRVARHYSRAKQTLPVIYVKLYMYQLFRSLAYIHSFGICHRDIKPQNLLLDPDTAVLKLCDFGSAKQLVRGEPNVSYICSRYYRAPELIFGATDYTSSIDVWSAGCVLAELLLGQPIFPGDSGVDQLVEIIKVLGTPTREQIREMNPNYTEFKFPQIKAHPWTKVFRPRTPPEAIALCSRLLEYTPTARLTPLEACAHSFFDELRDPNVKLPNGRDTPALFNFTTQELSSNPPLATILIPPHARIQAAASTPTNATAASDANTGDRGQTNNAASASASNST
Ki (GSK3β (H350L)) [nM],Ki [1] [nM],Structure (SMILES)
8.35,0.25,Cc1cc(CC(=O)Nc2cc([C@H]3CC[C@@H](OC(=O)N4[C@@H](C)C[C@@H]4C)C3)[nH]n2)on1 [Example 150]
69.7,0.18,CC[C@H](C)NC(=O)O[C@@H]1CC[C@H](c2cc(NC(=O)Cc3ccccc3)n[nH]2)C1 [Example 38]
20.6,0.18,CC[C@H](C)NC(=O)O[C@@H]1CC[C@H](c2cc(NC(=O)Cc3ccc4ncc(C)n4n3)n[nH]2)C1 [Example 46]
25.8,0.36,"CCCNC(=O)O[C@H]1CC[C@@H](c2cc(NC(=O)Cc3ccno3)n[nH]2)C1 [Example 168, (1S,3R)-3-{3-[(1,2-oxazol-5-ylacetyl)amino]-1H-pyrazol-5-yl}cyclopentyl propylcarbamate]"
7.06,0.23,CC1(C)CCCN1C(=O)O[C@@H]1CC[C@H](c2cc(NC(=O)Cc3cnco3)n[nH]2)C1 [Example 138]
17.8,0.22,Cc1cnc(CC(=O)Nc2cc([C@H]3CC[C@@H](OC(=O)NC4(C)CCC4)C3)[nH]n2)o1 [Example 118]
39.9,1.62,"O=C(Cc1ccno1)Nc1cc([C@H]2CC[C@@H](OC(=O)NC3CCCC3)C2)[nH]n1 [Example 460, (1R,3S)-3-{3-[(1,2-oxazol-5-ylacetyl)amino]-1H-pyrazol-5-yl}cyclopentyl cyclopentylcarbamate]"
> 191,0.7,"CCCNC(=O)O[C@H]1CC[C@@H](c2cc(Nc3ccc4c(n3)CC[C@@H]4N(C)C)n[nH]2)C1 [Example 192, (1S,3R)-3-(3-{[(5S)-5-(dimethylamino)-6,7-dihydro-5H-cyclopenta[b]pyridin-2-yl]amino}-1H-pyrazol-5-yl)cyclopentyl propylcarbamate]"
13.5,0.54,"CCCNC(=O)O[C@@H]1CC[C@H](c2cc(NC(=O)Cc3cncs3)n[nH]2)C1 [Example 179, (1R,3S)-3-{3-[(1,3-thiazol-5-ylacetyl)amino]-1H-pyrazol-5-yl}cyclopentyl propylcarbamate]"
61.4,0.11,CC[C@H](C)NC(=O)O[C@@H]1CC[C@H](c2cc(NC(=O)Cc3ccc(C)cc3S(C)(=O)=O)n[nH]2)C1 [Example 45]
24.3,0.4,"CCCNC(=O)O[C@H]1CC[C@@H](c2cc(NC(=O)Cc3cnco3)n[nH]2)C1 [Example 166, (1S,3R)-3-{3-[(1,3-oxazol-5-ylacetyl)amino]-1H-pyrazol-5-yl}cyclopentyl propylcarbamate]"
29.6,1.63,"CCCNC(=O)O[C@@H]1CC[C@H](c2cc(NC(=O)Cc3ccno3)n[nH]2)C1 [Example 169, (1R,3S)-3-{3-[(1,2-oxazol-5-ylacetyl)amino]-1H-pyrazol-5-yl}cyclopentyl propylcarbamate]"
27.4,1.62,"COc1ccc(CC(=O)Nc2cc([C@H]3CC[C@@H](OC(=O)NCC(F)F)C3)[nH]n2)cc1 [Example 250, (1R,3S)-3-(3-{[(4-methoxyphenyl)acetyl]amino}-1H-pyrazol-5-yl)cyclopentyl (2,2-difluoroethyl)carbamate]"

# Second part, the molecule before the results:
Structure (SMILES),Ki (GSK3β (H350L)) [nM],Ki [1] [nM]
"COc1ncc(CC(=O)Nc2cc([C@H]3CC[C@@H](OC(=O)N4CCOC[C@@H]4C)C3)[nH]n2)s1 [Example 646, (1R,3S)-3-(3-{[(2-methoxy-1,3-thiazol-5-yl)acetyl]amino}-1H-pyrazol-5-yl)cyclopentyl (3S)-3-methylmorpholine-4-carboxylate]",5.18,1.03
"COc1cc(CC(=O)Nc2cc([C@@H]3CC[C@H](OC(=O)N4C[C@@](C)(O)[C@@H]4C)C3)[nH]n2)ccn1 [Example 624, (1S,3R)-3-(3-{[(2-methoxypyridin-4-yl)acetyl]amino}-1H-pyrazol-5-yl)cyclopentyl (2S,3R)-3-hydroxy-2,3-dimethylazetidine-1-carboxylate]",16.3,4.18
"COc1ccc(CC(=O)Nc2cc([C@H]3CC[C@@H](OC(=O)N4C[C@@](C)(O)[C@@H]4C)C3)[nH]n2)cn1 [Example 627, (1R,3S)-3-(3-{[(6-methoxypyridin-3-yl)acetyl]amino}-1H-pyrazol-5-yl)cyclopentyl (2S,3R)-3-hydroxy-2,3-dimethylazetidine-1-carboxylate]",2.76,0.51
"Cc1ncc(CC(=O)Nc2cc([C@H]3CC[C@@H](OC(=O)N4C[C@@](C)(O)[C@@H]4C)C3)[nH]n2)s1 [Example 623, (1R,3S)-3-(3-{[(2-methyl-1,3-thiazol-5-yl)acetyl]amino}-1H-pyrazol-5-yl)cyclopentyl (2S,3R)-3-hydroxy-2,3-dimethylazetidine-1-carboxylate]",6.31,1.17
"Cc1ncc(CC(=O)Nc2cc([C@@H]3CC[C@H](OC(=O)N[C@H]4CC[C@@](C)(O)CC4)C3)[nH]n2)s1 [Example 562, (1S,3R)-3-(3-{[(2-methyl-1,3-thiazol-5-yl)acetyl]amino}-1H-pyrazol-5-yl)cyclopentyl (cis-4-hydroxy-4-methylcyclohexyl)carbamate]",4.85,0.43
"Cn1cc(CC(=O)Nc2cc([C@H]3CC[C@@H](OC(=O)NCCC(F)(F)F)C3)[nH]n2)cn1 [Example 216, (1R,3S)-3-(3-{[(1-methyl-1H-pyrazol-4-yl)acetyl]amino}-1H-pyrazol-5-yl)cyclopentyl (3,3,3-trifluoropropyl)carbamate]",28.2,0.86
"Cc1ccc(CC(=O)Nc2cc([C@H]3CC[C@@H](OC(=O)NCC(F)F)C3)[nH]n2)cn1 [Example 247, (1R,3S)-3-(3-{[(6-methylpyridin-3-yl)acetyl]amino}-1H-pyrazol-5-yl)cyclopentyl (2,2-difluoroethyl)carbamate]",12.2,1.36
Cc1cc(CC(=O)Nc2cc([C@H]3CC[C@@H](OC(=O)N4CCCCC4(C)C)C3)[nH]n2)on1 [Example 133],7,0.11
"C[C@H](CC(F)(F)F)NC(=O)O[C@@H]1CC[C@H](c2cc(NC(=O)Cc3cnn(C)c3)n[nH]2)C1 [Example 394, (1R,3S)-3-(3-{[(1-methyl-1H-pyrazol-4-yl)acetyl]amino}-1H-pyrazol-5-yl)cyclopentyl [(2R)-4,4,4-trifluorobutan-2-yl]carbamate]",42.7,0.42
"CC[C@H](C)CNC(=O)O[C@@H]1CC[C@H](c2cc(NC(=O)Cc3ccno3)n[nH]2)C1 [Example 415, (1R,3S)-3-{3-[(1,2-oxazol-5-ylacetyl)amino]-1H-pyrazol-5-yl}cyclopentyl[(2S)-2-methylbutyl]carbamate]",26.4,1.48
"CC[C@H](C)NC(=O)O[C@@H]1CC[C@H](c2cc(NC(=O)Cc3cc(OC)ncc3S(C)(=O)=O)n[nH]2)C1 [Example 375, (1R,3S)-3-[3-({[2-methoxy-5-(methylsulfonyl)pyridin-4-yl]acetyl}amino)-1H-pyrazol-5-yl]cyclopentyl (2S)-butan-2-ylcarbamate]",116,0.31
"COc1cc(CC(=O)Nc2cc([C@@H]3CC[C@H](OC(=O)N[C@H]4CC[C@](C)(O)CC4)C3)[nH]n2)ccn1 [Example 569, (1S,3R)-3-(3-{[(2-methoxypyridin-4-yl)acetyl]amino}-1H-pyrazol-5-yl)cyclopentyl (trans-4-hydroxy-4-methylcyclohexyl)carbamate]",4.31,1.25
"CCCNC(=O)O[C@H]1CC[C@@H](c2cc(NC(=O)Cc3ccccc3S(C)(=O)=O)n[nH]2)C1 [Example 203, (1S,3R)-3-[3-({[2-(methylsulfonyl)phenyl]-acetyl}amino)-1H-pyrazol-5-yl]cyclopentyl propylcarbamate]",34.2,0.29
"CC[C@H](C)NC(=O)O[C@@H]1CC[C@H](c2cc(NC(=O)Cc3ccc(OC)nc3)n[nH]2)C1 [Example 346, (1R,3S)-3-(3-{[(6-methoxypyridin-3-yl)acetyl]amino}-1H-pyrazol-5-yl)cyclopentyl (2S)-butan-2-ylcarbamate]",10.7,0.26
"COc1ccc(CC(=O)Nc2cc([C@H]3CC[C@@H](OC(=O)N4C[C@H](O)[C@H]4C)C3)[nH]n2)cn1 [Example 616, (1R,3S)-3-(3-{[(6-methoxypyridin-3-yl)acetyl]amino}-1H-pyrazol-5-yl)cyclopentyl (2R,3S)-3-hydroxy-2-methylazetidine-1-carboxylate]",4.05,0.28
"Cc1ncc(CC(=O)Nc2cc([C@@H]3CC[C@H](OC(=O)N[C@H]4CC[C@@H](O)CC4)C3)[nH]n2)s1 [Example 550, (1S,3R)-3-(3-{[(2-methyl-1,3-thiazol-5-yl)acetyl]amino}-1H-pyrazol-5-yl)cyclopentyl (cis-4-hydroxycyclohexyl)carbamate]",3.12,0.36
"COc1ccc(CC(=O)Nc2cc([C@@H]3CC[C@H](OC(=O)N4C[C@@H](O)[C@@H]4C)C3)[nH]n2)cn1 [Example 614, (1S,3R)-3-(3-{[(6-methoxypyridin-3-yl)acetyl]amino}-1H-pyrazol-5-yl)cyclopentyl (2S,3R)-3-hydroxy-2-methylazetidine-1-carboxylate]",6.58,1.66
"CCc1nn2cc(CC(=O)Nc3cc([C@H]4CC[C@@H](OC(=O)N[C@@H](C)CC)C4)[nH]n3)nc2s1 [Example 367, (1R,3S)-3-(3-{[(2-ethylimidazo[2,1-b][1,3,4]thiadiazol-6-yl)acetyl]amino}-1H-pyrazol-5-yl)cyclopentyl (2S)-butan-2-ylcarbamate]",23.5,0.27
"COc1ncc(CC(=O)Nc2cc([C@H]3CC[C@@H](OC(=O)N4CCOC[C@H]4C)C3)[nH]n2)s1 [Example 647, (1R,3S)-3-(3-{[(2-methoxy-1,3-thiazol-5-yl)acetyl]amino}-1H-pyrazol-5-yl)cyclopentyl (3R)-3-methylmorpholine-4-carboxylate]",3.39,1.08
"Cc1cccc(CC(=O)Nc2cc([C@H]3CC[C@@H](OC(=O)NC4(C)CC4)C3)[nH]n2)n1 [Example 426, (1R,3S)-3-(3-{[(6-methylpyridin-2-yl)acetyl]amino}-1H-pyrazol-5-yl)cyclopentyl (1-methylcyclopropyl)carbamate]",17,0.53
